Results as given in PubChem BioAssay (NCI).
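Where inhibition never reached the appropriate level, the endpoint shown equals the highest concentration tested. Otherwise, values were interpolated linearly from a five-concentration, 48-hour dose response in 96-well plates. TGI: total growth inhibition.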

How the values were obtained:
Assay in all cases: inhibition of tumour cell growth, NCI panel, 48 h
HOP-62 NSCLC = system: HOP-62 NSCLC
MDA-N = system: MDA-N
UACC-257 melanoma = system: UACC-257 melanoma
UO-31 renal = system: UO-31 renal
HS 578T breast = system: HS 578T breast
OVCAR-3 ovarian = system: OVCAR-3 ovarian
OVCAR-4 ovarian = system: OVCAR-4 ovarian
SK-MEL-2 melanoma = system: SK-MEL-2 melanoma
SK-MEL-5 melanoma = system: SK-MEL-5 melanoma
HCT-116 colon = system: HCT-116 colon
T-47D breast = system: T-47D breast
UACC-62 melanoma = system: UACC-62 melanoma
HOP-92 NSCLC = system: HOP-92 NSCLC
DU-145 prostate = system: DU-145 prostate
ACHN renal = system: ACHN renal
MCF7 breast = system: MCF7 breast
SN12C renal = system: SN12C renal
HCT-15 colon = system: HCT-15 colon
SF-268 CNS = system: SF-268 CNS
LOX IMVI melanoma = system: LOX IMVI melanoma
HL-60(TB) leukemia = system: HL-60(TB) leukemia
A549 NSCLC = system: A549 NSCLC
SNB-19 CNS = system: SNB-19 CNS
U251 CNS = system: U251 CNS
SF-539 CNS = system: SF-539 CNS
MALME-3M melanoma = system: MALME-3M melanoma
TK-10 renal = system: TK-10 renal
A498 renal = system: A498 renal
COLO 205 colon = system: COLO 205 colon
HT29 colon = system: HT29 colon
NCI-H226 lung = system: NCI-H226 lung
SF-295 CNS = system: SF-295 CNS
SK-OV-3 ovarian = system: SK-OV-3 ovarian
NCI-H522 lung = system: NCI-H522 lung
MDA-MB-231 breast = system: MDA-MB-231 breast
OVCAR-5 ovarian = system: OVCAR-5 ovarian
HCC-2998 colon = system: HCC-2998 colon
MOLT-4 leukemia = system: MOLT-4 leukemia
PC-3 prostate = system: PC-3 prostate
RPMI-8226 leukemia = system: RPMI-8226 leukemia
SW-620 colon = system: SW-620 colon
SR leukemia = system: SR leukemia
MDA-MB-435 = system: MDA-MB-435
EKVX NSCLC = system: EKVX NSCLC
CAKI-1 renal = system: CAKI-1 renal
M14 melanoma = system: M14 melanoma
KM12 colon = system: KM12 colon
NCI-H23 lung = system: NCI-H23 lung
OVCAR-8 ovarian = system: OVCAR-8 ovarian
RXF 393 renal = system: RXF 393 renal
786-0 renal = system: 786-0 renal
NCI-H460 lung = system: NCI-H460 lung
NCI/ADR-RES ovarian = system: NCI/ADR-RES ovarian
SK-MEL-28 melanoma = system: SK-MEL-28 melanoma
K-562 leukemia = system: K-562 leukemia
IGROV1 ovarian = system: IGROV1 ovarian

Measured: TGI

OC1CCCCCCCCCCC1SCCCCl (stereo unspecified)
> 100 µM: all assays above
